Data taken from patent US9302993B2, “8-hydroxy quinoline derivatives” (PRANA BIOTECHNOLOGY LIMITED, priority 2002, dated 2016).
Where two headings read alike, the source gives them in different places.

How the values were obtained:
[1] = target: T1, hydrogen peroxide generation by Aβ in the presence of copper (Homo sapiens, UniProt P05067); test: Fluorometric H2O2 assay (Assay 1); format: biochemical; settings: DCF/HRP, 37 C 60 min, several values in one cell = repeat determinations
T1 construct: The reaction solutions contained Aβ 1-42 at concentrations in the range of 50 nM to 1 μM
Outline: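 Aβ1-42 (50 nM–1 μM) with Cu-glycine (2 Cu-Gly : 1 Aβ) and a reductant (dopamine 5 μM or ascorbic acid) was incubated 60 min at 37 °C in PBS pH 7.4 with test compound. H2O2 was detected with 100 μM deacetylated DCF and 0.1 μM HRP by fluorescence against H2O2 standards.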

[2] = system: Neuronal cortical cells treated with Aβ1-42; test: Assay for Aβ neurotoxicity and Aβ neuroprotection (Assay 3(c)); format: cell-based, mouse; settings: 20 uM Aβ1-42, 4 days, MTS
Method: Media was then replaced with Neurobasal media (Invitrogen Life Technologies) and B27 supplements (Invitrogen Life Technologies). Cultures were maintained at 37° C. in 5% CO2. Prior to experimentation, the culture medium was replaced with Neurobasal media and B27 minus antioxidants (Invitrogen Life Technologies).
(c) Assay for Aβ Neurotoxicity and Aβ Neuroprotection
Neuronal cortical cells were cultured for five days as per Assay 2. On day six the neurobasal (NB) media (Invitrogen Life Technologies) and B27 supplement (Invitrogen Life Technologies) were replaced with NB media and B27 supplement (no antioxidants). On day six, test compounds were individually added to the neuronal cell cultures:
Aβ was initially dissolved in 20 mM NaOH to a concentration of 1 mM and sonicated for 5 minutes. The peptide was then diluted in H2O and 10×PBS to a final concentration of 200 uM Aβ in 1×PBS. The peptide was again sonicated for 5 minutes and then spun at 14000 rpm for 5 min and transferred to a fresh tube.
The test compounds were dissolved in 100% DMSO to a concentration of 2.5 mM (10 mM if excess compound was weighed out per vial—then diluted to 2.5 mM). […] Test compounds were not added directly to cells, instead they were added to a 48 well ‘Drug Plate’ as comprised below:
The Drug Plate was incubated at 37° C. for 15 mins. 200 ul of each well was added in triplicate to the corresponding cell plate. The cell plate was incubated at 37 C, for 4 days.
On the 4th day after treating the cells the assay is completed by adding MTS to the cells.

[3] = system: Neuronal cortical cells; test: Assay for test compound cytoxicity, MTS (Assay 3(d)); format: cell-based, mouse
[4] = system: Aβ in extract of tissue from post mortem human AD brain; test: Human brain amyloid solubilisation assay (Assay 9, BAS); format: biochemical
Method: Assay 9. Human Brain Amyloid Solubilisation Assay
This assay was performed in order to assess the ability of a test compound to mobilise Aβ from the insoluble to the soluble phase of an extract of tissue from post mortem human AD brain.
Up to 0.5 g of plaque-bearing cortex without meninges was homogenized using a DIAX 900 homogenizer (Heudolph and Co, Kelheim, Germany) or other suitable device for three 30-second periods at full speed in 2 ml of ice-cold phosphate-buffered saline, pH 7.4. To obtain the phosphate-buffered saline-extractable fraction, the homogenate was centrifuged at 100,000×g for 30 min and the supernatant removed. Alternatively, the tissue was freeze dried then pulverised to form a powder which was then weighed out into aliquots for extraction as above. Supernatant, either freeze-dried and resuspended or in unconcentrated form, was dissolved in 200 μl of Tris-Tricine sodium dodecyl sulfate (SDS) sample buffer pH 8.3 containing 8% SDS, 10% 2-mercaptoethanol. Aliquots (10 μl) were then boiled for 10 minutes before SDS-polyacrylamide gel electrophoresis. The insoluble fraction of the cortical samples was obtained by resuspending the initial pelleted sample in 1 ml of phosphate-buffered saline. A 50-μl aliquot of this suspension was then boiled in […] of sample buffer as above.
Tris-Tricine polyacrylamide gel electrophoresis was performed by loading appropriately diluted samples on to 10% to 20% gradient gels (Novex, San Diego, Calif.) followed by transfer on to 0.2-μm nitrocellulose membrane (Bio-Rad, Hercules, Calif.). Aβ was detected by using monoclonal antibody W02, which detects residues 5 through 8, […] (or another suitable antibody) in conjunction with horseradish peroxidase-conjugated rabbit anti-mouse IgG (Dako, Denmark), and visualized by using enhanced chemiluminescence (eg ECL; Amersham Life Science, Buckinghamshire, UK). Each gel included three lanes containing 0.5, 1, and 2 ng of synthetic Aβ40 (Keck Laboratory, Yale University, New Haven, Conn.) as reference standards.
Blot films were scanned by using a suitable imaging system such as the UVP gel documentation system, and densitometry performed using suitable software, eg UVP Labworks. The dynamic range of the film/scanner was determined by using a step tablet (No. 911ST600, Kodak, Rochester N.Y.), a calibrated film exposed by the manufacturer to provided steps of known increasing intensity. The quantifiable range of signal intensity for densitometric analysis of the mono- and dimeric Aβ bands was based on the comparison with a curve obtained by scanning and densitometry of the step tablet.
All samples were analysed at least twice, and gel loadings and dilutions were adjusted to fit within the quantifiable region of the standard curve. […] The insoluble Aβ being comprised of the pelletable fraction derived from the insoluble amyloid plaque from the above cortical samples and the soluble fraction comprising monomeric and/or oligomeric soluble Aβ.

[5] = Aβ 1-42 with Cu-Gly, read-out: Peroxide IC50
[6] = BL6J×129sv, mouse, 4 days, 1 uM
[7] = BL6J×129sv, mouse, 4 days, 10 uM
[8] = solubilising plaques relative to PBS

T1 sequence (P05067 672-713 limits assumed): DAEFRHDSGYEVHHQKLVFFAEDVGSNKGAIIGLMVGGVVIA

SMILES	IC50 [1, 5] [nM]	% inhibition Abeta toxicity [2] [%]	Test Compound Cytoxicity 0.1 um ([3]; BL6J×129sv, mouse, 4 days) [%]	Test Compound Cytoxicity 1 uM [3, 6]	Test Compound Cytoxicity 10 uM [3, 7]	BAS Score [4, 8]	IC50 ([1]; Peroxide IC50, Aβ 1-42 with Cu-Gly) [nM]	Viable 10 uM [3, 7]	Cell viability (% viable cells, MTS) ([3]; 1 uM, 4 days, in %)	Viable 10 uM ([3]; 10 uM test compound, repeated lines = repeat determinations, in %)	Cell viability (% viable cells, MTS) ([3]; 10 uM, 4 days, in %)	Cell viability (% viable cells, MTS) ([3]; 0.1 um, 4 days) [%]	BAS Score [4]
Oc1c(I)cc(Cl)c2cccnc12 [compound 1, clioquinol, reference compound]	400 to 500	16	78	90	77	++							
O=S(=O)(O)c1ccc(O)c2ncccc12 [compound 41]		12	95	100	100	+	500	81.33					
Oc1cccc2cccnc12 [compound 42]		14							87	97.66	79	90	+
Oc1c(Cl)cc(Cl)c2cccnc12 [compound 45]	700	28	100	92	67	++							
CCCCN(c1ccc2cccc(O)c2n1)c1ccc2cccc(O)c2n1 [compound 53]	300	−75	96	95	100	+		95.8					
Cc1cc(C)c2cccnc2c1O [compound 59]		22	89	97	55	+							
Oc1c(Br)cc(-c2cc(F)cc(F)c2)c2cccnc12 [compound 853]		31	93	79	39	+		94.79					
Oc1c(-c2ccccc2C(F)(F)F)cc(Cl)c2cccnc12 [compound 864]		13	100	88	37	+		93.12					
Oc1ccccc1-c1cc(Cl)c2cccnc2c1O [compound 947]		3	100	94	51	+		70.4					
NCc1ccc2cccc(O)c2n1 [compound 968]		6	103	87	82	++		97.12					
O/N=C/c1ccc2cccc(O)c2n1 [compound 969, 8-Hydroxy-quinoline-2-carboxaldehyde Oxime]		2	91	92	90	+		94.55					
Nc1ccccc1NC(=O)c1cc(O)c2cccc(O)c2n1 [compound 986]		7	96	85	60	+		81.73					
O=C(CNC(=O)c1cc(O)c2cccc(O)c2n1)NCCc1c[nH]cn1 [compound 987]		5	92	90	87	+		89.03					
CN(CCc1ccccn1)Cc1ccc2cccc(O)c2n1 [compound 990]		18	95	88	57	+		57.45					
Oc1cccc2ccc(-c3ccccn3)nc12 [compound 1006]		7		92	52	++							
CN(c1ccccn1)c1ccc2c(Cl)cc(Cl)c(O)c2n1 [compound 1056, 5,7-Dichloro-8-hydroxy-2-(methyl-pyridin-2-yl-amino)-quinoline]	690	39		96.44	68.25			68.25					
Oc1c(Cl)cc(-c2cccnc2)c2cccnc12 [compound 1057, 7-chloro-5-(pyridin-3-yl)-quinolin-8-ol]	430	4		101.84	95.02			95.02					
Oc1c(Cl)cc(Cl)c2cc(Cl)cnc12 [compound 1058, 3,5,7-trichloro-8-hydroxyquinoline]	680	30		82.47	54.60			54.60					
